These results are taken from patent publication US11149066B2, “Thrombospondin 1-binding peptide” (DAIICHI SANKYO COMPANY, LIMITED, priority 2016, dated 2021).

Positions of bridges follow the written chain, without caps; N, C: chain ends. Non-standard residues stand in square brackets, D forms with d. Residues, ends and D or L forms follow the SMILES beside them. Phe(4-CH2NH2) = NCc1ccc(C[C@H](N)C(=O)O)cc1; 2Nal = N[C@@H](Cc1ccc2ccccc2c1)C(=O)O; Nle = CCCC[C@H](N)C(=O)O

human TSP1, sequence (P07996 19-1170 limits assumed): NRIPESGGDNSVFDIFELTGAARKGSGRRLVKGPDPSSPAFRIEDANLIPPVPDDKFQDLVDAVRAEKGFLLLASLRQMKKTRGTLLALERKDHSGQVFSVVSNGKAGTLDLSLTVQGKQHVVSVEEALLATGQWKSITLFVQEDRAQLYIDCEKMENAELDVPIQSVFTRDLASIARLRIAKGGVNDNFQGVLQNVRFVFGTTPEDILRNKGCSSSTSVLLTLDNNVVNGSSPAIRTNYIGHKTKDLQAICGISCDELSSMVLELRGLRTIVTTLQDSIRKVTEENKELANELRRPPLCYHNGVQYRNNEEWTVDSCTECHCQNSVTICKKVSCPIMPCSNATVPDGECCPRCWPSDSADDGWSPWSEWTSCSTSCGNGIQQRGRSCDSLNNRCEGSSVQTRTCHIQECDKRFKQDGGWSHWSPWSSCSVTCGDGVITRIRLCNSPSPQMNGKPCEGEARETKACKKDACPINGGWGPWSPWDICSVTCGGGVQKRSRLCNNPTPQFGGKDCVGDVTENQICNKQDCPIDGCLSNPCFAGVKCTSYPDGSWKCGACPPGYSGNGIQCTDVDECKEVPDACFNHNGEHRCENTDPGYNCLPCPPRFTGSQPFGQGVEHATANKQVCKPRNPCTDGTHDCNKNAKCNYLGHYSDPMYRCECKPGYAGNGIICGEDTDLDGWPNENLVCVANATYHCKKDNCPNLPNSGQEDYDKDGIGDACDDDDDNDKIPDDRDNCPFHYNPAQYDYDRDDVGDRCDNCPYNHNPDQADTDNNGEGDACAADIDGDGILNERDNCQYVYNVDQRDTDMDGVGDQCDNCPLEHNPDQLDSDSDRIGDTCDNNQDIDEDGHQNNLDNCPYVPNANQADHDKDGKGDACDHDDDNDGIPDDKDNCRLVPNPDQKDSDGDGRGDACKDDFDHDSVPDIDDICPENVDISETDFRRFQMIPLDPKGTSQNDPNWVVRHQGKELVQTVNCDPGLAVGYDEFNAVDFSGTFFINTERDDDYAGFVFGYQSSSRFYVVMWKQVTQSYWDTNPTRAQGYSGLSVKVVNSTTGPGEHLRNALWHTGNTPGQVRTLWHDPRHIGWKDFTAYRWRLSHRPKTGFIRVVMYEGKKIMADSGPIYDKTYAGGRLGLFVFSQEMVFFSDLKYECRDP

The first test has as its target human TSP1 (Homo sapiens, UniProt P07996). In words: Cell adhesion inhibition assay (HUVEC adhesion to TSP1-coated plate). It counts as cell-based. The settings on record: HUVEC adhesion to TSP1-coated plate; read-out: cell adhesion inhibition (Table 4). The protocol: As referred to herein, the TSP1 inhibitory activity refers to the activity to inhibit one or more effects of TSP1, including angiostatic effect. The TSP1 inhibitory activity is measured by a cell adhesion inhibition assay using human TSP1 and vascular endothelial cells as described hereinbelow in the Examples section. In this assay, when the 50% inhibitory concentration (IC5O) of a test substance is 200 nM or less, the test substance is determined to have TSP1 inhibitory activity.
(Test Example 1) Cell Adhesion Inhibition Assay
I. Materials and Reagents
96 well Non-treated White with clear bottom (Coster, 3632)
BrightMax adhesive sealing films (EXCEL Scientific, WT50)
Proteosave®SS 15 mL (Sumitomo Bakelite, MS-52150)
Thrombospondin human platelet (Calbiochem, 605225)
EGM-2 MV (Lonza, CC-3202): for HUVEC passaging
Collagen coated dish (IWAKI, 4020-010): for HUVEC passaging
Lipidure®-BL802 (NOF Corporation), 5% solution
Albumin solution (35%) fraction V from Bovine (Sigma, A7979)
CellTiter-Glo (Promega, G7572)
Thrombospondin 1 vial (25 μg) was dissolved in TBS (+2 mM CaCl2; the same shall apply hereunder) to make a 200 μg/mL solution, which was diluted with TBS to a concentration of 10 μg/mL in Proteosave® 15 mL tube. The 10 μg/mL solution was dispensed into a 96 well plate at a volume of 50 μL/well (no reservoir was used since the protein easily adsorbs on it), and the plate was left to stand at 4° C. overnight.
Lipidure® was diluted 10-fold with TBS to make a 0.5% solution. After a buffer was discarded from the plate that had been coated at the step of <Plate coat> as described above, the 0.5% solution was dispensed into all wells to be used at a volume of 100 μL/well, and the plate was left to stand at room temperature for 1 hour.
A 0.2 μM solution of each sample was prepared using a dilution buffer (DMEM+0.5% BSA). 2 μL of the 0.2 μM solution was diluted with 500 μL, of dilution buffer to prepare a diluted sample. As a vehicle control, DMSO was diluted in the same way as the samples.
A blocking solution was discarded from the plate that had been treated at the step of <Plate blocking> as described above, and the plate was washed three times with 150 μL/well of TBS. The washing solution used for the third washing was completely sucked out by an aspirator, and the diluted sample was dispensed into the plate at a volume of 50 μL/well. Then, the plate was left to stand at room temperature for 15 to 30 minutes.
To maintain HUVECs, EGM2-MV and a collagen coated dish were used (the cells were ceased to be used after 10th or 1 lth passage since the cell proliferation rate declined at this stage). The cells were dispersed with 0.05% Trypsin/EDTA, harvested in DMEM/0.5% BSA, and centrifuged at 1000 rpm for 3 minutes. After removal of supernatant, the cells were washed once with a DMEM buffer. The cells were resuspended in a DMEM buffer, counted for cell number, and diluted to 10000 cells/50 μL. The cell suspension was dispensed at a volume of 50 μL/well into the plate into which the sample had been dispensed, mixed gently, and incubated at 37° C. for 2.5 hours.
After cell adhesion was confirmed, the culture medium was completely removed by an aspirator, and 100 μL/well of DMEM/0.5% BSA was gently dispensed. Then, DMEM/0.5% BSA was completely removed by an aspirator, and 50 μL/well of DMEM/0.5% BSA was dispensed. After a white seal was applied to the bottom of the plate, 50 μL/well of CellTiter-Glo® was dispensed, and the solution was stirred for 2 minutes and left to stand at room temperature for 8 minutes. […] was detected using EnVision Xcite Multilabel Reader (produced by Perkin Elmer).
On the basis of the measured fluorescence values, the IC50 values (nM) of the different macrocyclic polypeptides for inhibition of cell adhesion were calculated.
Consider `CCCC[C@@H]1NC(=O)[C@H](Cc2c[nH]c3ccccc23)NC(=O)[C@H](CC(N)=O)NC(=O)[C@H](Cc2c[nH]cn2)NC(=O)CNC(=O)[C@H](CO)NC(=O)[C@H](CCCNC(=N)N)NC(=O)[C@H](Cc2ccc3ccccc3c2)NC(=O)CSC[C@@H](C(N)=O)NC(=O)[C@H](C(C)C)NC(=O)[C@H](Cc2c[nH]c3ccccc23)NC(=O)[C@H](C(C)C)NC1=O` [Compound 100] ({CH2CO}-[2Nal]RSGHNW[Nle]VWVC-NH2; thioether N-12), for which the IC50 was determined as 19.5 nM.

With `CCCC[C@@H]1NC(=O)[C@H](Cc2c[nH]c3ccccc23)NC(=O)[C@H](CC(=O)O)NC(=O)[C@H](CCCNC(=N)N)NC(=O)CNC(=O)[C@H](CO)NC(=O)[C@H]([C@@H](C)CC)NC(=O)[C@H](Cc2ccc3ccccc3c2)NC(=O)[C@H](Cc2c[nH]cn2)NC(=O)CSC[C@@H](C(N)=O)NC(=O)[C@H](C(C)C)NC(=O)[C@H](Cc2c[nH]c3ccccc23)NC(=O)[C@H](CCCCN)NC1=O` [Compound 91] ({CH2CO}-H[2Nal]ISGRDW[Nle]KWVC-NH2; thioether N-13), the IC50 amounted to 17.1 nM.

In the case of `CCCC[C@@H]1NC(=O)[C@H](Cc2c[nH]c3ccccc23)NC(=O)[C@H](CC(=O)O)NC(=O)[C@H](CCCCN)NC(=O)CNC(=O)[C@H](CO)NC(=O)[C@H]([C@@H](C)CC)NC(=O)[C@H](Cc2ccc3ccccc3c2)NC(=O)[C@H](CO)NC(=O)CSC[C@@H](C(N)=O)NC(=O)[C@H](C(C)C)NC(=O)[C@H](Cc2c[nH]c3ccccc23)NC(=O)[C@H](CCCNC(=N)N)NC1=O` [Compound 92] ({CH2CO}-S[2Nal]ISGKDW[Nle]RWVC-NH2; thioether N-13), the IC50 is 15.5 nM.

As for `CC(C)[C@@H]1NC(=O)[C@H](Cc2c[nH]c3ccccc23)NC(=O)[C@H](C(C)C)NC(=O)[C@H](C(C)C)NC(=O)[C@H](Cc2c[nH]c3ccccc23)NC(=O)[C@H](CC(=O)O)NC(=O)[C@H](CCCCN)NC(=O)CNC(=O)[C@H](CO)NC(=O)[C@H](CCCNC(=N)N)NC(=O)[C@H](Cc2ccc3ccccc3c2)NC(=O)CSC[C@@H](C(N)=O)NC1=O` [Compound 99] ({CH2CO}-[2Nal]RSGKDWVVWVC-NH2; thioether N-12), the IC50 turned out to be 14.2 nM.

The same test, now with this note: HUVEC adhesion to human platelet thrombospondin-coated plate, 2.5 hours, CellTiter-Glo; read-out: Cell adhesion IC50.
Take `CC[C@H](C)[C@@H]1NC(=O)[C@H](Cc2ccccc2)NC(=O)CSC[C@@H](C(N)=O)NC(=O)[C@H](C(C)C)NC(=O)[C@H](Cc2c[nH]c3ccccc23)NC(=O)[C@H](Cc2ccc(CN)cc2)NC(=O)[C@H](C(C)C)NC(=O)[C@H](Cc2c[nH]c3ccccc23)NC(=O)[C@H](CC(N)=O)NC(=O)[C@H](CCCNC(=N)N)NC(=O)CNC(=O)[C@H](CO)NC1=O` [Compound 47] ({CH2CO}-FISGRNWV[Phe(4-CH2NH2)]WVC-NH2; thioether N-12): the IC50 is 16.7 nM.

`CC[C@H](C)[C@@H]1NC(=O)[C@H](Cc2ccccc2)NC(=O)CSC[C@@H](C(N)=O)NC(=O)[C@H](C(C)C)NC(=O)[C@H](Cc2c[nH]c3ccccc23)NC(=O)[C@H](C(C)C)NC(=O)[C@H](C(C)C)NC(=O)[C@H](Cc2c[nH]c3ccccc23)NC(=O)[C@H](CC(N)=O)NC(=O)[C@H](CCCNC(=N)N)NC(=O)CNC(=O)[C@H](CO)NC1=O` [Compound 1] ({CH2CO}-FISGRNWVVWVC-NH2; thioether N-12): the IC50 came to 34 nM.

`CC[C@H](C)[C@@H]1NC(=O)[C@H](Cc2c[nH]c3ccccc23)NC(=O)CSC[C@@H](C(N)=O)NC(=O)[C@H](C(C)C)NC(=O)[C@H](Cc2c[nH]c3ccccc23)NC(=O)[C@H](CCCCN)NC(=O)[C@H](C(C)C)NC(=O)[C@H](Cc2c[nH]c3ccccc23)NC(=O)[C@H]([C@@H](C)O)NC(=O)[C@H](CCCCN)NC(=O)CNC(=O)[C@H](CO)NC1=O` [Compound 20] ({CH2CO}-WISGKTWVKWVC-NH2; thioether N-12): the IC50 came out at 13 nM.

In the case of `CC[C@H](C)[C@@H]1NC(=O)[C@H](Cc2ccccc2)NC(=O)CSC[C@@H](C(N)=O)NC(=O)[C@H](C(C)C)NC(=O)[C@H](Cc2c[nH]c3ccccc23)NC(=O)[C@H](CCCCN)NC(=O)[C@H](C(C)C)NC(=O)[C@H](Cc2c[nH]c3ccccc23)NC(=O)[C@H]([C@@H](C)O)NC(=O)[C@H](CCCCN)NC(=O)CNC(=O)[C@H](CO)NC1=O` [Compound 18] ({CH2CO}-FISGKTWVKWVC-NH2; thioether N-12), the IC50 was found to be 13 nM.

Turning to `CC[C@H](C)[C@@H]1NC(=O)[C@H](Cc2ccccc2)NC(=O)CSC[C@@H](C(N)=O)NC(=O)[C@H](CCCNC(=N)N)NC(=O)[C@H](Cc2c[nH]c3ccccc23)NC(=O)[C@H](CCCNC(=N)N)NC(=O)[C@H](C(C)C)NC(=O)[C@H](Cc2c[nH]c3ccccc23)NC(=O)[C@H](CC(N)=O)NC(=O)[C@H](CCCNC(=N)N)NC(=O)CNC(=O)[C@H](CO)NC1=O` [Compound 5], the IC50 was found to be 33.4 nM.

Another test concerns C57BL/6 mice. In words: Blood flow improvement tests (femoral artery/vein ligation and excision, laser Doppler). The following applies: blood flow ratio ischemia/nonischemia, after 7 days of surgery. The class given is in vivo. The source says:
(Test Example 3) Blood Flow Improvement Tests
Seven to nine-week-old male C57BL/6 mice were purchased from Charles River Laboratories Japan Inc., and acclimated over one week by feeding with a FR-2 solid diet (produced by Funabashi Farm Co., Ltd.). The rearing facility switched between light and dark modes in a 12-hour cycle with light turning on at 7 a.m and turning off at 7 p.m. Under isofluorane inhalation anaesthesia, the left thighs of the mice were dissected, and the superficial femoral arteries and veins (from just below the deep femoral arteries to the popliteal artery and vein) were ligated and excised. After animal models were made, the test substances (Compounds 24, 28, 40 to 45, and 58) were each dissolved in a solution of 20 mM lactic acid and 5% (w/v) Lutrol, and intraperitoneally injected into mice once daily.
(Blood Flow Improvement Test 1)
Compound 24 (10 mg/kg)-treated group
(Blood Flow Improvement Test 2)
Compound 28 (10 mg/kg)-treated group
(Blood Flow Improvement Test 3)
Compound 40 (10 mg/kg)-treated group
Compound 41 (10 mg/kg)-treated group
(Blood Flow Improvement Test 4)
Compound 42 (10 mg/kg)-treated group
Compound 43 (10 mg/kg)-treated group
Compound 44 (10 mg/kg)-treated group
Compound 45 (10 mg/kg)-treated group
(Blood Flow Improvement Test 5)
Compound 58 (10 mg/kg)-treated group
Blood flows were measured in ischemic (left) and non-ischemic (right) limbs using a laser Doppler perfusion imager (LDPI; PIM III, Perimed, Inc.). Blood flow values were evaluated by the ratio of ischemic limb flow to non-ischemic limb flow.
Blood flow values from the mice were the lowest immediately after surgery and then gradually recovered. All of the test substances investigated in the animal models of this study improved blood flow recovery after surgery as compared to vehicle treatment. After 7 days of surgery, the blood flows in the test substance-treated groups were higher than in the vehicle-treated mice.
Consider `CC[C@H](C)[C@@H]1NC(=O)[C@H](Cc2ccc3ccccc3c2)NC(=O)CSC[C@@H](C(N)=O)NC(=O)[C@H](C(C)C)NC(=O)[C@H](Cc2c[nH]c3ccccc23)NC(=O)[C@H](CCCCN)NC(=O)[C@H](C(C)C)NC(=O)[C@H](Cc2ccc3ccccc3c2)NC(=O)[C@H](CC(N)=O)NC(=O)[C@H](CCCNC(=N)N)NC(=O)CNC(=O)[C@H](CO)NC1=O` [Compound 28] ({CH2CO}-[2Nal]ISGRN[2Nal]VKWVC-NH2; thioether N-12), for which the “% change (vs. vehicle)” value was found to be 1.8%.

As for `CC[C@H](C)[C@@H]1NC(=O)[C@H](Cc2ccc3ccccc3c2)NC(=O)CSC[C@@H](C(N)=O)NC(=O)[C@H](C(C)C)NC(=O)[C@H](Cc2c[nH]c3ccccc23)NC(=O)[C@H](Cc2c[nH]cn2)NC(=O)[C@H](C(C)C)NC(=O)[C@H](Cc2c[nH]c3ccccc23)NC(=O)[C@H](CC(N)=O)NC(=O)[C@H](CCCNC(=N)N)NC(=O)CNC(=O)[C@H](CO)NC1=O` [Compound 41] ({CH2CO}-[2Nal]ISGRNWVHWVC-NH2; thioether N-12), the “% change (vs. vehicle)” value was 32.7%.

Still in this test, the particulars now being: blood flow ratio of ischemic limb to non-ischemic limb, laser Doppler, after 7 days of surgery.
With `CC[C@H](C)[C@@H]1NC(=O)[C@H](Cc2ccc3ccccc3c2)NC(=O)CSC[C@@H](C(N)=O)NC(=O)[C@H](C(C)C)NC(=O)[C@H](Cc2c[nH]c3ccccc23)NC(=O)[C@H](CCCCN)NC(=O)[C@H](C(C)C)NC(=O)[C@H](Cc2ccc3ccccc3c2)NC(=O)[C@H](CC(N)=O)NC(=O)[C@H](CCCNC(=N)N)NC(=O)CNC(=O)[C@H](CO)NC1=O` [Compound 28] ({CH2CO}-[2Nal]ISGRN[2Nal]VKWVC-NH2; thioether N-12), the “%, ischemia/nonischemia” value was determined as 40.79%.

As to `CC[C@H](C)[C@@H]1NC(=O)[C@H](Cc2ccc3ccccc3c2)NC(=O)CSC[C@@H](C(N)=O)NC(=O)[C@H](C(C)C)NC(=O)[C@H](Cc2c[nH]c3ccccc23)NC(=O)[C@H](Cc2c[nH]cn2)NC(=O)[C@H](C(C)C)NC(=O)[C@H](Cc2c[nH]c3ccccc23)NC(=O)[C@H](CC(N)=O)NC(=O)[C@H](CCCNC(=N)N)NC(=O)CNC(=O)[C@H](CO)NC1=O` [Compound 41] ({CH2CO}-[2Nal]ISGRNWVHWVC-NH2; thioether N-12), the “%, ischemia/nonischemia” value worked out at 58.05%.
